Experimental data from patent EP1120414A1, “DISUBSTITUTED MALEIMIDE COMPOUNDS AND MEDICINAL UTILIZATION THEREOF” (Japan Tobacco Inc., priority 1998, dated 2000).
Structures can show the parent of a compound that is named as a salt. Where two headings read alike, the source gives them in different places.

Tests used:
PKC β II = molecular target: T1, PKC β II (Homo sapiens, UniProt P05771); experiment: PKC enzyme assay (BIOTRAK Protein kinase C enzyme assay system, 32P-ATP phosphorylation of peptide […]); type: biochemical; details: for Ratio α/β: IC50 PKC α / IC50 PKC β II
T1 construct: purchased CALBIOCHEM
T1 sequence (P05771 other isoform, or with tags, fused parts or gaps): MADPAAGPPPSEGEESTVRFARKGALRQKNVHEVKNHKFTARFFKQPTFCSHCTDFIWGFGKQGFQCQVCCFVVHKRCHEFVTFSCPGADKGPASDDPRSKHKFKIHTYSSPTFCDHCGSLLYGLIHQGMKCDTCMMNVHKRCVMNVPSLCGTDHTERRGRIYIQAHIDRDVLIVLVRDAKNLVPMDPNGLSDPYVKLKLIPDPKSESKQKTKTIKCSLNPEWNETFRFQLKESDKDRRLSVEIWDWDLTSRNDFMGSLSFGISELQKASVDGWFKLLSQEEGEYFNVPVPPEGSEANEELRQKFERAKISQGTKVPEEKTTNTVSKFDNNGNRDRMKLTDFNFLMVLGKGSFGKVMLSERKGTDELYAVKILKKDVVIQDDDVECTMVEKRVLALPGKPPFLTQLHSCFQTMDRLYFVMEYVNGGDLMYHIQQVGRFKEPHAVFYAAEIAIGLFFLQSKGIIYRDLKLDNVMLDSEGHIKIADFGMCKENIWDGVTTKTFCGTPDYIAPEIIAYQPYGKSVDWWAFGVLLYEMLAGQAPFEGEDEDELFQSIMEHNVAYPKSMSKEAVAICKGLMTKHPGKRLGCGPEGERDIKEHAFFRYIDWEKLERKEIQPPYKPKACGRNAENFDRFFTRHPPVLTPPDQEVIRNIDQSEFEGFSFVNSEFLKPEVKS
Excerpt: The method for determining the PKC inhibitory activity of the compound of the present invention is explained in the following. Inasmuch as PKCβII is present in greater number in intravascular cells than PKCβI, PKCβII was mainly used here to test the enzyme activity.
(§1) As the reagent for enzyme assay, BIOTRAK Protein kinase C enzyme assay system (hereinafter the system, Amersham), and as the PKC enzyme standard product, Protein Kinase C, Human Recombinant (CALBIOCHEM) were purchased and used in the assay. A substrate mixture was prepared by mixing calcium buffer (12 mM calcium acetate, 50 mM Tris/HCl pH 7.5, 0.05% (w/v) sodium azide), Lipid (0.3 mg/ml La-phosphatidyl-L-serine, […] phorbol 12-myristate 13-acetate, 50 mM Tris/HCl pH 7.5, 0.05% (w/v) sodium azide), peptide buffer (900 µM peptide […]), 50 mM Tris/HCl pH 7.5, 0.05% (w/v) sodium azide), DTT buffer (30 mM dithiothreitol, 50 mM Tris/HCl pH 7.5, 0.05% (w/v) sodium azide), and magnesium ATP buffer (1.2 mM ATP, […] pH 7.4, 72 mM magnesium chloride) all attached to the system in a ratio of 1:1:1:1:0.8 and adding [ y -32P]ATP (Amersham, cat. […] The PKC enzyme standard product was diluted with an assay buffer (10 mM Hepes pH 7.4, 0.01% Triton X-100) to a concentration of 400 ng/ml and used as the enzyme solution. The substrate mixture and a test substance (diluted to the final concentration of 1 nM-10 µM with dimethyl sulfoxide (DMSO)) were mixed at a ratio of 20:1. The enzyme solution was added in the amount equivalent to the substrate mixture and mixed, which was followed by incubation at 37°C for 15 minutes. The reaction terminator (300 mM orthophosphoric acid containing carmosine red) attached to the system was added in the amount equivalent to the substrate mixture to end the reaction, and the reaction mixture was spotted on a phosphocellulose paper (Whatman, P-81), washed twice with 75 mM orthophosphoric acid and assayed for radioactivity by BAS2000 (Fuji film).
(§2) The ratio of the radioactivity of the addition of the test substance to the addition of DMSO was determined, and IC50 was calculated from inhibition at each concentration.

PKC α = molecular target: T2, PKC α (Homo sapiens, UniProt P17252); experiment: as above; type: biochemical
T2 construct: purchased CALBIOCHEM
Description: as §1, §2

[1] = Protein Kinase C, Human Recombinant, test substance 1 nM-10 µM, 37°C, 15 minutes, read-out: Inhibition of PKC activity IC50 PKC β II
[2] = Protein Kinase C, Human Recombinant, test substance 1 nM-10 µM, 37°C, 15 minutes, read-out: Inhibition of PKC activity IC50 PKC α

SMILES	IC50 (PKC β II; [1]) [nM]	IC50 (PKC α; [2]) [nM]	Ratio α/β (PKC β II)	IC50 (PKC β II) [nM]	IC50 (PKC α) [nM]
O=C1NC(=O)C(c2cn(CC(O)CO)c3ccccc23)=C1Nc1ccccc1 (stereo not shown) [Example 2-44, 3-[1-(2,3-dihydroxypropyl)-1H-indol-3-yl]-4-(phenylamino)-1H-pyrrole-2,5-dione]	261	8160	31	–	–
O=C1NC(=O)C(c2cn(CCN3CCC(O)CC3)c3ccccc23)=C1Nc1ccccc1 [Example 2-47, 3-[1-{2-(4-hydroxypiperidino)ethyl}-1H-indol-3-yl]-4-(phenylamino)-1H-pyrrole-2,5-dione]	66	2340	36	–	–
O=C1NC(=O)C(c2cn(CCCN3CCC(N4CCCC4)CC3)c3ccccc23)=C1Nc1ccccc1 [Example 2-49, 3-[1-(3-(4-pyrrolidinylpiperidino)propyl}-1H-indol-3-yl]-4-(phenylamino)-1H-pyrrole-2,5-dione]	–	–	–	8	723
CC(C)(C)OC(=O)C1CCN(CCCn2cc(C3=C(Nc4ccccc4)C(=O)NC3=O)c3ccccc32)CC1 [Example 2-51, 3-[1-{3-[4-(tert-butoxycarbonyl)piperidino]propyl}-1H-indol-3-yl]-4-(phenylamino)-1H-pyrrole-2,5-dione]	27	1020	38	–	–
Cc1c(C2=C(Nc3ccccc3)C(=O)NC2=O)c2ccccc2n1CCCN1CCCCC1 [Example 2-53, 3-[2-methyl-1-(3-piperidinopropyl)-1H-indol-3-yl]-4-(phenylamino)-1H-pyrrole-2,5-dione]	98	> 10000	102	–	–
Cc1c(C2=C(Nc3ccccc3)C(=O)NC2=O)c2ccccc2n1CCCN(C)C [Example 2-54, 3-[1-(3-dimethylaminopropyl)-2-methyl-1H-indol-3-yl]-4-(phenylamino)-1H-pyrrole-2,5-dione]	61	6670	109	–	–
Cc1c(C2=C(Nc3ccccc3)C(=O)NC2=O)c2ccccc2n1CCCN1CCCC1 [Example 2-55, 3-[2-methyl-1-(3-pyrrolidin-1-ylpropyl)-1H-indol-3-yl]-4-(phenylamino)-1H-pyrrole-2,5-dione]	96	> 10000	104	–	–
CCN(C)CCCn1c(C)c(C2=C(Nc3ccccc3)C(=O)NC2=O)c2ccccc21 [Example 2-56, 3-[1-{3-(ethylmethylamino)propyl}-2-methyl-1H-indol-3-yl]-4-(phenylamino)-1H-pyrrole-2,5-dione]	84	5490	65	–	–
O=C1NC(=O)C(c2cn(CCn3ccnc3)c3ccccc23)=C1Nc1ccccc1 [Example 2-62, 3-[1-(2-imidazol-1-ylethyl)-1H-indol-3-yl]-4-(phenylamino)-1H-pyrrole-2,5-dione]	81	4430	55	–	–
Cc1nccn1CCn1cc(C2=C(Nc3ccccc3)C(=O)NC2=O)c2ccccc21 [Example 2-63, 3-[1-{2-(2-methyl-imidazol-1-yl)ethyl}-1H-indol-3-yl]-4-(phenylamino)-1H-pyrrole-2,5-dione]	247	7120	29	–	–
COc1ccc(NC2=C(c3cn(CCCn4ccnc4)c4ccccc34)C(=O)NC2=O)cc1 [Example 2-65, 3-[1-(3-imidazol-1-ylpropyl)-1H-indol-3-yl]-4-[(4-metholyphenyl)amino]-1H-pyrrole-2,5-dione]	10	473	47	–	–
CN1CCCC(Cn2cc(C3=C(Nc4ccccc4)C(=O)NC3=O)c3ccccc32)C1 (stereo not shown) [Example 3-3, 3-[1-{(1-methylpiperidin-3-yl)methyl}-1H-indol-3-yl]-4-(phenylamino)-1H-pyrrole-2,5-dione]	57	2650	47	–	–

More lines, in order of falling IC50 (PKC β II; [1]), values ahead:

IC50 (PKC β II; [1]) [nM]	IC50 (PKC α; [2]) [nM]	Ratio α/β (PKC β II)	IC50 (PKC β II) [nM]	IC50 (PKC α) [nM]	SMILES
29	1630	56	–	–	O=C1NC(=O)C(c2cn(CC3CCN(CC(O)CO)CC3)c3ccccc23)=C1Nc1ccccc1 (stereo not shown) [Example 3-5, 3-[1-{[1-(2,3-dihydroxypropyl)piperidin-4-yl]methyl}-1H-indol-3-yl]-4-(phenylamino)-1H-pyrrole-2,5-dione]
27	908	34	–	–	O=C1NC(=O)C(c2cn(CCCn3ccnc3)c3ccccc23)=C1Nc1ccc(Br)cc1 [Example 2-66, 3-[(4-bromophenyl)amino]-4-[1-(3-imidazol-1-ylpropyl)-1H-indol-3-yl]-1H-pyrrole-2,5-dione]
20	739	37	–	–	O=C1NC(=O)C(c2cn(CCCn3ccnc3)c3ccccc23)=C1Nc1ccc(Cl)cc1 [Example 2-64, 3-[(4-chlorophenyl)amino]-4-[1-(3-imidazol-1-ylpropyl)-1H-indol-3-yl]-1H-pyrrole-2,5-dione]
20	2350	117	–	–	Cc1c(C2=C(Nc3ccccc3)C(=O)NC2=O)c2ccccc2n1CCCn1ccnc1 [Example 2-69, 3-[1-(3-imidazol-1-ylpropyl)-2-methyl-1H-indol-3-yl]-4-(phenylamino)-1H-pyrrole-2,5-dione]
19	886	47	–	–	O=C1NC(=O)C(c2cn(CCCN3CCC(CO)CC3)c3ccccc23)=C1Nc1ccccc1 [Example 2-50, 3-[1-{3-[4-(hydroxymethyl)piperidino]propyl}-1H-indol-3-yl]-4-(phenylamino)-1H-pyrrole-2,5-dione]
18	1390	77	–	–	O=C1NC(=O)C(c2cn(CCCN3CCC(Cc4ccccc4)CC3)c3ccccc23)=C1Nc1ccccc1 [Example 2-48, 3-[1-{3-(4-benzylpiperidino)propyl}-1H-indol-3-yl]-4-(phenylamino)-1H-pyrrole-2,5-dione]
18	842	47	–	–	Cc1cn(CCCn2cc(C3=C(Nc4cccc(Cl)c4)C(=O)NC3=O)c3ccccc32)cn1 [Example 2-58, 3-[(3-chlorophenyl)amino]-4-[1-{3-(4-methyl-imidazol-1-yl)propyl}-1H-indol-3-yl]-1H-pyrrole-2,5-dione]
18	484	27	–	–	O=C1NC(=O)C(c2cn(CC3CCCNC3)c3ccccc23)=C1Nc1ccccc1 (stereo not shown) [Example 3-1, 3-(phenylamino)-4-[1-(3-piperidylmethyl)-1H-indol-3-yl]-1H-pyrrole-2,5-dione]
18	518	29	–	–	CN1CCC(Cn2cc(C3=C(Nc4ccccc4)C(=O)NC3=O)c3ccccc32)CC1 [Example 3-4, 3-[1-{(1-methylpiperidin-4-yl)methyl}-1H-indol-3-yl]-4-(phenylamino)-1H-pyrrole-2,5-dione]
16	298	19	–	–	O=C1NC(=O)C(c2cn(CC3CCNCC3)c3ccccc23)=C1Nc1ccccc1 [Example 3-2, 3-(phenylamino)-4-[1-(4-piperidylmethyl)-1H-indol-3-yl]-1H-pyrrole-2,5-dione]
9	401	45	–	–	Cc1nccn1CCCn1cc(C2=C(Nc3ccccc3)C(=O)NC2=O)c2ccccc21 [Example 2-61, 3-[1-{3-(2-methylimidazol-1-yl)propyl}-1H-indol-3-yl]-4-(phenylamino)-1H-pyrrole-2,5-dione]
8	356	45	–	–	Cc1cncn1CCCn1cc(C2=C(Nc3cccc(Cl)c3)C(=O)NC2=O)c2ccccc21 [Example 2-59, 3-[(3-chlorophenyl)amino]-4-[1-{3-(5-methyl-imidazol-1-yl)propyl}-1H-indol-3-yl]-1H-pyrrole-2,5-dione]
6	315	53	–	–	O=C1NC(=O)C(c2cn(CCCn3ccnc3)c3ccccc23)=C1Nc1ccc(F)cc1 [Example 2-68, 3-[(4-fluorophenyl)amino]-4-[1-(3-imidazol-1-ylpropyl)-1H-indol-3-yl]-1H-pyrrole-2,5-dione]
2	27	–	–	–	N=C(N)SCCCn1cc(C2=C(Nc3ccccc3)C(=O)NC2=O)c2ccccc21 [Example 2-43, 3-[1-(3-amidinothiopropyl)-1H-indol-3-yl]-4-(phenylamino)-1H-pyrrole-2,5-dione hydrobromide]
